Counter-ions that a name gives are not always drawn.
Legend:
PARP = molecular target: T1, PARP (Mus musculus, UniProt P11103); experiment: PARP activity in cultured macrophages, whole-cell based assay (3H-NAD+ incorporation after hydrogen peroxide); conditions: murine RAW macrophages, 1 hour pretreatment, hydrogen peroxide 0.5 mM
T1 construct: PARP Activity in Cultured Macrophages, Using a Whole-Cell Based Assay; endogenous in cells; host or cells: murine RAW macrophages (ATCC)
Method: Effect of Tetracyclic 1H-indeno[1,2-b]pyridine-2(511)-one Analogs on PARP Activity in Cultured Macrophages, Using a Whole-Cell Based Assay
The murine RAW macrophages (ATCC, American Type Culture Collection, Manassas, Va.) were grown in […] (Invitrogen Life Technologies; Carlsbad, Calif.) medium supplemented with 10% heat-inactivated FBS, 2 mM L-glutamine, and 100 U/ml of penicillin and streptomycin. Cells, between passages 5 and 15, were seeded at a density of 250,000 cells/well in 12 well plates and allowed to grow 48 hours before use. Growth medium was changed on the day of use. Cells were treated with a tetracyclic 1H-indeno[1,2-b]pyridine-2(5H)-one analog diluted in a growth medium supplemented with 10% fetal bovine serum (FBS) for 1 hour prior to the addition of hydrogen peroxide (0.5 mM) for a further 25 minutes. For the measurement of PARP activity, media was removed and replaced with 0.5 ml of the assay buffer (56 mM HEPES-pH 7.5, 28 mM KCl, 28 mM NaCl, 2 mM MgCl2, 0.01% digitonin, and 0.5 μCi/ml of ^3H-NAD^+) for 20 minutes. After aspirating the assay buffer, cells were lysed and transferred to eppendorf tubes containing 250 μl of 50% ice-cold trichloroacetic acid (TCA), which were then placed at 4° C. for 4 hours. Samples were centrifuged at 10,000 g for 10 minutes and supernatant removed. The pellets were washed twice with 500 μl of ice-cold 5% w/v TCA. The pellets were then solubilized in 250 μl of NaOH (0.1 M) containing 2% SDS overnight at 37° C. and the PARP activity was then determined by measuring the radioactivity incorporated using a Wallac scintillation counter. The solubilized protein (250 μl) was mixed with 5 ml of scintillation fluid (ScintiSafe Plus, Fisher Scientific) before being counted for 3 minutes. EC50 values were determined from a dose-response curve.

PARP-1 enzyme = molecular target: T2, PARP-1 enzyme (Homo sapiens, UniProt P09874); experiment: Purified PARP-1 enzyme inhibition assay (Trevigen kit, 96 well ELISA plates); format: biochemical
T2 construct: purchased Trevigen, Gaithersburg, Md
T2 sequence (P09874 whole entry): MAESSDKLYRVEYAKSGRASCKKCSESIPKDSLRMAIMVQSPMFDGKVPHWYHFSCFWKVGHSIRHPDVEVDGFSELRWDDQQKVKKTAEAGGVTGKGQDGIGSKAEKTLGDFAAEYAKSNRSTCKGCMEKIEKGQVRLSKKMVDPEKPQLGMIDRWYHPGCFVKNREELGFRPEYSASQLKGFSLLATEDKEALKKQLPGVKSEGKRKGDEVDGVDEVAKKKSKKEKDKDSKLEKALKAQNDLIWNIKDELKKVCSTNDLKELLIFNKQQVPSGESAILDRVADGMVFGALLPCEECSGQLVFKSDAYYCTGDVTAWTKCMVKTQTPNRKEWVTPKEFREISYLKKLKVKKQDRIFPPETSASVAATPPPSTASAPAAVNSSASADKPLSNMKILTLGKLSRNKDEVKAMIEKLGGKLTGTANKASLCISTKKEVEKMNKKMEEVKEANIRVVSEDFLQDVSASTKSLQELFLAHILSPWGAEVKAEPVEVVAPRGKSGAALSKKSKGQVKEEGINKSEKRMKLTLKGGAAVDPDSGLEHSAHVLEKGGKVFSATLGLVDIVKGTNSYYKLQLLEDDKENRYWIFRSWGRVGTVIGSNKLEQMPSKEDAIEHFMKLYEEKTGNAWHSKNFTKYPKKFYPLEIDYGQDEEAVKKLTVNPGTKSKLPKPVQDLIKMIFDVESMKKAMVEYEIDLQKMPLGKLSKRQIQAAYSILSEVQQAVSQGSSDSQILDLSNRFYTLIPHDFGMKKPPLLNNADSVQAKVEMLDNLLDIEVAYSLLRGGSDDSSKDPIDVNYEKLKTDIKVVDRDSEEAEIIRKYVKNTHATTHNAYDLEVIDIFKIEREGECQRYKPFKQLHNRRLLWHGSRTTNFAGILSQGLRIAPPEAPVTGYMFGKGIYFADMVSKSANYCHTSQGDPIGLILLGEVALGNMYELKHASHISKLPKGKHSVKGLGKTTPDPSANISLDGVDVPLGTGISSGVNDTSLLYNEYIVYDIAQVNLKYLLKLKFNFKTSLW
Method: Effect of Tetracyclic 1H-indeno[1,2-b]pyridine-2(5H)-one analogs on PARP Activity in purified PARP-1 enzyme assay
The potency of inhibition on purified PARP-1 enzyme was subsequently determined for selected compounds, and the potency was compared with INO-1001. The assay was performed in 96 well ELISA plates according to instructions provided with a commercially available PARP-1 inhibition assay kit (Trevigen, Gaithersburg, Md.). Briefly, wells were coated with 1 mg/ml histone (50 μl/well) at 4° C. overnight. Plates were then washed four times with PBS and then blocked by adding 50 μl Strep-Diluent (supplied with the kit). After incubation (1 h, 25° C.), the plates were washed four times with PBS. Appropriate dilutions of compound was combined with 2×PARP cocktail (1.95 mM NAD^+, 50 μM biotinylated NAD^+ in 50 mM TRIS pH 8.0, 25 mM MgCl2) and high specific activity PARP enzyme (both were supplied with the kit) in a volume of 50 μl. The reaction was allowed to proceed for 30 min at room temperature. After 4 washes in PBS, incorporated biotin was detected by peroxidase-conjugated streptavidin (1:500 dilution) and TACS Sapphire substrate. EC50 and IC50 values were determined from a dose-response curve.

T1 sequence (P11103 whole entry): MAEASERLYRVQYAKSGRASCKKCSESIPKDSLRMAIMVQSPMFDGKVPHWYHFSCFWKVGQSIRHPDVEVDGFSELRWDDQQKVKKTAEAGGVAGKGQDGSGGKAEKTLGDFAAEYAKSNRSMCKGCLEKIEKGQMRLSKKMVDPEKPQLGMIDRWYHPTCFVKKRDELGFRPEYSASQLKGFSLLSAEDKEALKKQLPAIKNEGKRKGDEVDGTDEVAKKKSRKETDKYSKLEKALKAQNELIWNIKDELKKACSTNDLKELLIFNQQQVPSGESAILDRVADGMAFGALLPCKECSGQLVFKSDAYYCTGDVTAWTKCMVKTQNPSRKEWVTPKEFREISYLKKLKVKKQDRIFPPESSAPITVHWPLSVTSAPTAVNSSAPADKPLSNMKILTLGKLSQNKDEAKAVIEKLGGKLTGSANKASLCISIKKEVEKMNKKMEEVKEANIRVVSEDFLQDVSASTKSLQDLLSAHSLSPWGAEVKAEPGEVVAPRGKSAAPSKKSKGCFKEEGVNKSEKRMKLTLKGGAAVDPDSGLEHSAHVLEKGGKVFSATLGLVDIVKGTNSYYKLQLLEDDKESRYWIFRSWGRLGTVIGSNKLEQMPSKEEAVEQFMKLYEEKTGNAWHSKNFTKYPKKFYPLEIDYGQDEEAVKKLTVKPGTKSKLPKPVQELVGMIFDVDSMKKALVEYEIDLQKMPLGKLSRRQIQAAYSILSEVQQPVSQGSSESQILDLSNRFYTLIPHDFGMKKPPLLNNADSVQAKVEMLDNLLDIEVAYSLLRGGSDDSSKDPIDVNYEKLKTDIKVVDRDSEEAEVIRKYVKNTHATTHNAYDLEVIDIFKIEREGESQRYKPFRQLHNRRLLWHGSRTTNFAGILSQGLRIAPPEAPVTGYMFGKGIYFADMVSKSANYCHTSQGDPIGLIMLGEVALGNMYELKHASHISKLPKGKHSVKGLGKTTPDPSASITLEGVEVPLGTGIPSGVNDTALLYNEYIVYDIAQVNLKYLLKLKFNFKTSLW

| SMILES | EC50 (PARP) | IC50 (PARP-1 enzyme) |
| --- | --- | --- |
| O=c1[nH]c2c(c3c1CCCC3)Cc1c(CN3CCC(N4CCCCC4)CC3)cccc1-2 [Example 22, 10-(1,4′-bipiperidin-1′-ylmethyl)-3,4,6,11-tetrahydro-1H-indeno[1,2-c]isoquinolin-5(2H)-one dihydrochloride] | 0.0078 µM |  |
| CCCN1CCN(Cc2ccc3c(c2)Cc2c-3[nH]c(=O)c3c2CCCC3)CC1 [Example 34, 9-((4-propylpiperazin-1-yl)methyl)-3,4,6,11-tetrahydro-M-indeno[1,2-c]isoquinolin-5(2H)-one] | 0.2 µM |  |
| COC(=O)c1ccc2c(c1)Cc1c-2[nH]c(=O)c2c1CCCC2 [Example 30, methyl 5-oxo-2,3,4,5,6,11-hexahydro-1H-indeno[1,2-c]isoquinoline-9-carboxylate] | 0.25 µM |  |
| COC(=O)c1cccc2c1Cc1c-2[nH]c(=O)c2c1CCCC2 [Example 63, methyl 5-oxo-2,3,4,5,6,11-hexahydro-1H-indeno[1,2-c]isoquinoline-10-carboxylate] | 0.1 µM |  |
| O=c1[nH]c2c(c3sccc13)Cc1c(CN3CCC(C(F)(F)F)CC3)cccc1-2 [Example 54, 9-((4-(trifluoromethyl)piperidin-1-yl)methyl)-5,10-dihydro-4H-indeno[1,2-b]thieno[2,3-d]pyridin-4-one] | > 0.5 µM |  |
| O=c1[nH]c2c(c3c1CCCC3)Cc1cc(CN3CCCC3)ccc1-2 [Example 39, 9-(pyrrolidin-1-ylmethyl)-3,4,6,11-tetrahydro-1H-indeno[1,2-c]isoquinolin-5(2H)-one] | 0.1 µM |  |
| COCCNCc1cccc2c1Cc1c-2[nH]c(=O)c2c1CCCC2 [Example 27, 10-((2-methoxyethylamino)methyl)-3,4,6,11-tetrahydro-1H-indeno[1,2-c]isoquinolin-5(2H)-one] | 0.016 µM |  |
| O=c1[nH]c2c(c3c1CCCC3)Cc1c(CN3CCCC3)cccc1-2 [Example 8, 10-(pyrrolidin-1-ylmethyl)-3,4,6,11-tetrahydro-1H-indeno[1,2-c]isoquinolin-5(2H)-one hydrochloride] | 0.0085 µM |  |
| O=c1[nH]c2c(c3c1CCCC3)Cc1c(CN3CCCCC3)cccc1-2 [Example 4, 10-(piperidin-1-ylmethyl)-3,4,6,11-tetrahydro-1H-indeno[1,2-c]isoquinolin-5(2H)-one hydrochloride] | 0.0015 µM |  |
| O=c1[nH]c2c(c3c1CCCC3)Cc1cc(CN3CCOCC3)ccc1-2 [Example 37, 9-(morpholinomethyl)-3,4,6,1′-tetrahydro-4H-indeno[1,2-c]isoquinolin-5(2H)-one] | 0.3 µM |  |
| O=c1[nH]c2c(c3c1CCCC3)Cc1c(CN3CCCCCC3)cccc1-2 [Example 5, 10-(azepan-1-ylmethyl)-3,4,6,11-tetrahydro-1H-indeno[1,2-c]isoquinolin-5(2H)-one] | 0.0078 µM |  |
| O=c1[nH]c2c(c3c1CCCC3)Cc1c(CN3CCC(F)(F)CC3)cccc1-2 [Example 12, 10-((4,4-difluoropiperidin-1-yl)methyl)-3,4,6,11-tetrahydro-1H-indeno[1,2-c]isoquinolin-5(2H)-one] | 0.749 µM |  |
| O=c1[nH]c2c(c3c1CCCC3)Cc1c(CN3CCC(O)CC3)cccc1-2 [Example 3, 10-((4-hydroxypiperidin-1-yl)methyl)-3,4,6,11-tetrahydro-1H-indeno[1,2-c]isoquinolin-5(2H)-one hydrochloride] |  | 0.0113 µM |
| O=c1[nH]c2c(c3c1CCCC3)Cc1c(CO)cccc1-2 [Example 29, 10-(hydroxymethyl)-3,4,6,11-tetrahydro-1H-indeno[1,2-c]isoquinolin-5(2H)-one] | 0.025 µM |  |
| O=c1[nH]c2c(c3c1CCCC3)Cc1c(CN3CC[C@H](F)C3)cccc1-2 [Example 15, (S)-10-((3-fluoropyrrolidin-1-yl)methyl)-3,4,6,11-tetrahydro-1H-indeno[1,2-c]isoquinolin-5(2H)-one] | 0.0117 µM |  |
| O=c1[nH]c2c(c3ncccc13)Cc1c(CO)cccc1-2 [Example 57, 10-(hydroxymethyl)-6,11-dihydro-5H-indeno[1,2-h][1,6]naphthyridin-5-one] | 0.334 µM |  |

| SMILES | EC50 (PARP) | IC50 (PARP-1 enzyme) |
| --- | --- | --- |
| CCN(CC)Cc1ccc2c(c1)Cc1c-2[nH]c(=O)c2c1CCCC2 [Example 64, 9-((diethylamino)methyl)-3,4,6,11-tetrahydro-1H-indeno[1,2-c]isoquinolin-5(2H)-one] | 0.00448 µM |  |
| O=c1[nH]c2c(c3c1CCCC3)Cc1cc(CN3CCC(O)CC3)ccc1-2 [Example 38, 9-((4-hydroxypiperidin-1-yl)methyl)-3,4,6,11-tetrahydro-1H-indeno[1,2-c]isoquinolin-5(2H)-one] | 0.3 µM |  |
| CCOC1CCN(Cc2cccc3c2Cc2c-3[nH]c(=O)c3c2CCCC3)CC1 [Example 14, 10-((4-ethoxypiperidin-1-yl)methyl)-3,4,6,11-tetrahydro-1H-indeno[1,2-c]isoquinolin-5(2H)-one mesylate] | 0.0127 µM |  |
| O=c1[nH]c2c(c3c1CCCC3)Cc1cc(CNC3CCCC3)ccc1-2 [Example 40, 9-((cyclopentylamino)methyl)-3,4,6,11-tetrahydro-1H-indeno[1,2-c]isoquinolin-5(2H)-one] | 0.06 µM |  |
| O=c1[nH]c2c(c3c1CCCC3)Cc1c(CN3CCCCCCC3)cccc1-2 [Example 10, 10-(azocan-1-ylmethyl)-3,4,6,11-tetrahydro-1H-indeno[1,2-c]isoquinolin-5(2H)-one] | 0.037 µM |  |
| CCCCN1CCN(Cc2ccc3c(c2)Cc2c-3[nH]c(=O)c3c2CCCC3)CC1 [Example 44, 9-((4-butylpiperazin-1-yl)methyl)-3,4,6,11-tetrahydro-4H-indeno[1,2-c]isoquinolin-5(2H)-one] | 0.2 µM |  |
| O=c1[nH]c2c(c3c1CCCC3)Cc1cc(CO)ccc1-2 [Example 33, 9-(hydroxymethyl)-3,4,6,11-tetrahydro-1H-indeno[1,2-c]isoquinolin-5(2H)-one] | 0.095 µM |  |
| COCCN1CCN(Cc2ccc3c(c2)Cc2c-3[nH]c(=O)c3c2CCCC3)CC1 [Example 35, 9-((4-(2-methoxyethyl)piperazin-1-yl)methyl)-3,4,6,11-tetrahydro-1H-indeno[1,2-c]isoquinolin-5(2H)-one] | 0.3 µM |  |
| O=c1[nH]c2c(c3c1CCCC3)Cc1c(CN3CCSC3)cccc1-2 [Example 13, 10-(thiazolidin-3-ylmethyl)-3,4,6,11-tetrahydro-1H-indeno[1,2-c]isoquinolin-5(2H)-one] | 0.169 µM |  |
| O=c1[nH]c2c(c3ccsc13)Cc1c(CN3CCC(C(F)(F)F)CC3)cccc1-2 [Example 47, 9-((4-(trifluoromethyl)piperidin-1-yl)methyl)-5,10-dihydro-4H-indeno[1,2-b]thieno[3,2-d]pyridin-4-one] | 0.009 µM |  |
| O=c1[nH]c2c(c3c1CCCC3)Cc1c(CN3CCCC3)cccc1-2 [Example 6, 10-(pyrrolidin-1-ylmethyl)-3,4,6,11-tetrahydro-1H-indeno[1,2-c]isoquinolin-5(2H)-one] | 0.00846 µM |  |
| O=c1[nH]c2c(c3c1CCCC3)Cc1c(CN3CCNCC3)cccc1-2 [Example 31, 10-(piperazin-1-ylmethyl)-3,4,6,11-tetrahydro-1H-indeno[1,2-c]isoquinolin-5(2H)-one] | 0.08 µM |  |
| CN(C)Cc1cccc2c1Cc1c-2[nH]c(=O)c2c1CCCC2 [Example 28] | 0.035 µM |  |
| CC(C)(N)c1cccc2c1Cc1c-2[nH]c(=O)c2c1CCCC2 [Example 46, 10-(2-aminopropan-2-yl)-3,4,6,11-tetrahydro-1H-indeno[1,2-c]isoquinolin-5(2H)-one] | 0.008 µM |  |
| O=c1[nH]c2c(c3c1CCCC3)Cc1cc(CN3CCC(F)CC3)ccc1-2 [Example 66, 9-((4-fluoropiperidin-1-yl)methyl)-3,4,6,11-tetrahydro-1H-indeno[1,2-c]isoquinolin-5(2H)-one] | 0.0375 µM |  |
| O=c1[nH]c2c(c3c1CCCC3)Cc1cc(CN3CCC(F)(F)CC3)ccc1-2 [Example 65, 9-((4,4-difluoropiperidin-1-yl)methyl)-3,4,6,11-tetrahydro-1H-indeno[1,2-c]isoquinolin-5(2H)-one] | 0.748 µM |  |
